Article PMC9433906, “Evaluation of the biotechnological potential of peptide Cupiennin 1a and analogs” (Frontiers in Microbiology, 2022)
Converted amounts (≈) assume the structure as drawn. Where a SMILES comes first, the peptide text is derived from it.

Legend:
[1] = system: K. pneumoniae (ATCC 13883); type: cell-based, Klebsiella pneumoniae; conditions: K. pneumoniae (ATCC13883); 5×10^5 CFU.ml^−1, Mueller-Hinton Broth, 37°C, 24 h, OD 595 nm, biological triplicates
Protocol: Susceptibility tests were performed using clinical isolates of Klebsiella pneumoniae carbapenemase (KPC 1410503) and methicillin-resistant S. aureus (MRSA 3730592). Tests were also performed with ATCC (American Type Culture Collection) isolates of K. pneumoniae (ATCC 13883) and S. aureus (ATCC 25923).
Two multidrug-resistant clinical isolates and two ATCC isolates were chosen to perform microbial susceptibility testing as models for studies with bacteria susceptible to antimicrobials found in the Gram-Positive and Gram-Negative groups of bacteria.
The broth microdilution method was performed according to the Clinical and Laboratory Standards Institute (CLSI) M07-A10 protocol to determine the Minimum Inhibitory Concentration (MIC; [Clinical Laboratory Standards Institute, 2015]). The assay was performed on 96-well microplates (TPP, United States), containing 5×10^5 CFU.ml^−1 of each tested bacterium per well and different peptide micromolar concentrations (Table 1) in a final volume of 100 μl of Mueller-Hinton Broth (MH). Negative control was represented by bacteria incubated in MH medium, while positive control was represented by culture incubated in MH medium with Amikacin. Plates were kept under agitation at 37°C in a BioTek spectrophotometer (PowerWaveTM HT Microplate Reader) with optical density (OD) readings at 595 nm every 30 min for 24 h. Inhibition results were analyzed using GraphPad Prism 8 software by comparing the OD from negative control wells (100%) to those containing peptides. All tests were performed in biological triplicates.

[2] = system: C. parapsilosis (ATCC22019); experiment: Broth microdilution MIC (CLSI M27-A3 with modifications); type: cell-based, Candida parapsilosis; conditions: 2.5 × 10^3 CFU.ml^−1, Sabouraud medium, 24 h at 30°C, absorbance 595 nm
Protocol: The broth microdilution method was performed according to the Clinical and Laboratory Standards Institute Guideline M27-A3 with modifications to determine the Minimum Inhibitory Concentration (MIC; [Clinical Laboratory Standards Institute, 2008]).
Initially, the fungus C. parapsilosis (ATCC22019) was grown in a Petri dish containing Sabouraud Dextrose Agar medium (Dextrose 40 g/L; Peptic digestion of animal tissue 5.0 g.L^−1; and Agar 15 g.L^−1) for 48 h. Subsequently, a pre-inoculum was performed from a yeast colony that was placed in 10 ml of liquid Sabouraud medium and incubated for 16 h at 28°C, with a constant rotation of 200 rpm. After the incubation period, 2.5 × 10^3 CFU.ml^−1 of fungus per well was incubated with different peptide micromolar concentrations (Table 1) to assess the MIC for each peptide.
Fungal cells incubated with Sabouraud medium were used as negative control, while positive control was represented by fungal cells incubated in Sabouraud medium and amphotericin B (10 μM). Subsequently, plates were incubated for 24 h at 30°C. After this period, the absorbance was read (595 nm) in a BioTek spectrophotometer (PowerWaveTM HT Microplate Reader), and data of antifungal activity with percentage of inhibition of peptides were plotted in GraphPad Prism 8 Software.

RAW 264.7 cells = experiment: MTT cytotoxicity test against RAW 264.7; type: cell-based, mice; conditions: 24 h; for toxicity against RAW264.7 cells (in words): tested concentrations of Table 1 (128–16 μg.ml^−1)
Protocol: The cell line RAW 264.7 was obtained from the Rio de Janeiro Cell Bank (CR108). These cells are macrophages derived from induced tumors in male BALB/c mice infected with Abelson’s murine leukemia virus ([Raschke et al., 1978]). RAW264.7 cells were grown in DMEM medium (Dulbecco’s Modified Eagle’s medium, composed of CaCl2 (anhydrous) 200 mg.ml^−1, Fe(NO3).9H2O 0.1 mg.ml^−1, KCL 400 mg.ml^−1, MgSO4 (anhydrous) 97.67 mg.ml^−1, NaCL 6.400 mg.ml^−1, NaH2PO4.H2O 125 mg.ml^−1) supplemented with 10% (v/v) of bovine fetal serum, 0.5% (v/v) of DMEM amino acid solution, 0.05% (w/v) gentamicin, 0.5% (w/v) of L-glutamine, and 0.5% (w/v) of penicillin/streptomycin (1,000 U.ml^−1) in an incubator containing 5% CO2, at 37°C, and 95% humidity ([Raschke et al., 1978]; [Nguyen et al., 2017]).
RAW 264.7 cells were seeded in 96-well plates, at a concentration of 10^4 cells/well, and incubated for 24 h. Each peptide was subsequently added at different micromolar concentrations (Table 1). Positive control was performed by cells in culture medium and negative control, as cell culture in lysis solution (10 mM Tris, 1 mM EDTA, and 0.1% Triton X-100, pH 7.4).
(§1) Cell viability analyses were performed in technical and biological replicates, and readings were obtained after 24 h of contact with peptides. At the end of the incubation period, MTT (Sigma-Aldrich, United States) was used to assess the ability of living cells to reduce salt 3-[4,5-dimethylthiazole-2-yl]-2,5-diphenyltetrazolium bromide for formazan production. Plates were read at 570 ηm ([Mosmann, 1983]) and results were expressed in the percentage of living cells. The results were analyzed using GraphPad Prism 8 software where a One-Way ANOVA statistical test was followed by Bonferroni’s multiple comparisons test.

[3] = system: Human fibroblast (Hfib) cells; experiment: MTT cytotoxicity test against human fibroblasts (Hfib); type: cell-based; conditions: 24 h; for cytotoxicity against Hfib cells at the other concentrations (in words): concentrations other than the highest
Protocol: Human fibroblast (Hfib) cell cultures were cultivated in Dulbecco’s Modified Eagle Medium (DMEM; Sigma-Aldrich, United States) supplemented with 10% fetal bovine serum (Sigma-Aldrich). Hfib were cultured in a humidified incubator containing 5% CO2 at 37°C and 95% humidity.
Hfib cell line was seeded onto 96-well plates (1 × 10^3 cells/well, 100 μl) before treatment and allowed to adhere and grow over the 24 h period. Each peptide was subsequently added at different micromolar concentrations. The results were evaluated using GraphPad Prism 8 software, where a One-Way ANOVA statistical test followed by Bonferroni’s multiple comparisons test was performed.
as §1

SMILES	Minimum inhibitory concentration (MIC) [1] [µM]	Minimum inhibitory concentration (MIC) [2] [µM]	toxicity to RAW264.7 cells at the MIC concentration (in words) (RAW 264.7 cells; R1b: MIC found for KPC1410503, R3b: MIC at high concentrations against all tested microorganisms)	toxicity against RAW264.7 cells (in words) (RAW 264.7 cells)	cytotoxic effect on Hfib cells (in words) ([3]; all concentrations tested)	cell viability (RAW264.7) in the MIC found for the two strains of S. aureus (RAW 264.7 cells; at the MIC of R6b for these strains (17.7 μM in Table 3)) [%]	activity on Hfib cells, reducing the cell viability (in words) ([3]; 35.4 μM)	Hfib cells eradicated ([3]; 70.8 μM) [%]	cell viability in RAW264.7 cells from the MIC concentration found for MRSA3730592, S. aureus ATCC25923, K. pneumoniae ATCC13883 (RAW 264.7 cells; at the MIC of R8b for these strains (17.60 μM in Table 3)) [%]	Hfib cells killed at the highest concentration ([3]; 70.43 (highest concentration)) [%]	cytotoxicity against Hfib cells at the other concentrations (in words) [3]	cell viability in RAW cells at the MIC value found for bacteria (RAW 264.7 cells; 17.07 and 8.53 μM)	Hfib cells killed at the highest concentration ([3]; 68.3 (highest concentration)) [%]
CC(C)C[C@H](NC(=O)[C@H](C)NC(=O)CNC(=O)[C@H](Cc1ccccc1)NC(=O)CN)C(=O)N[C@@H](Cc1ccccc1)C(=O)N[C@@H](CCCCN)C(=O)N[C@@H](CCCNC(=N)N)C(=O)N[C@@H](CC(C)C)C(=O)N[C@@H](C)C(=O)N[C@@H](CCCCN)C(=O)N[C@@H](CCCCN)C(=O)N[C@H](C(=O)N[C@@H](C)C(=O)N[C@@H](CCCCN)C(=O)N[C@H](C(=O)N[C@H](C(=O)N[C@@H](C)C(N)=O)C(C)C)[C@@H](C)O)C(C)C [Peptide R3b] (H-GFGALFKRLAKKVAKTVA-NH2)	67.21 (≈ 128 µg/mL)	33.60 (≈ 64 µg/mL)	toxic	high toxicity	did not show any cytotoxic effect	–	–	–	–	–	–	–	–
CC(C)C[C@H](NC(=O)[C@H](C)NC(=O)CNC(=O)[C@H](Cc1ccccc1)NC(=O)CN)C(=O)N[C@@H](Cc1ccccc1)C(=O)N[C@@H](CCCCN)C(=O)N[C@@H](Cc1ccccc1)C(=O)N[C@@H](CC(C)C)C(=O)N[C@@H](C)C(=O)N[C@@H](CCCCN)C(=O)N[C@@H](C)C(=O)N[C@H](C(=O)N[C@@H](C)C(=O)N[C@@H](CCCCN)C(=O)N[C@@H](C)C(=O)N[C@H](C(=O)N[C@@H](C)C(N)=O)C(C)C)C(C)C [Peptide R6b] (H-GFGALFKFLAKAVAKAVA-NH2)	35.4 (≈ 64 µg/mL)	70.8 (≈ 128 µg/mL)	–	high toxicity	–	62	slight activity	100	–	–	–	–	–
CC(C)C[C@H](NC(=O)[C@H](C)NC(=O)CNC(=O)[C@H](Cc1ccccc1)NC(=O)CN)C(=O)N[C@@H](Cc1ccccc1)C(=O)N[C@@H](CCCCN)C(=O)N[C@@H](CCCNC(=N)N)C(=O)N[C@@H](CC(C)C)C(=O)N[C@@H](C)C(=O)N[C@@H](CCCCN)C(=O)N[C@@H](C)C(=O)N[C@H](C(=O)N[C@@H](C)C(=O)N[C@@H](CCCCN)C(=O)N[C@@H](C)C(=O)N[C@H](C(=O)N[C@@H](C)C(N)=O)C(C)C)C(C)C [Peptide R8b] (H-GFGALFKRLAKAVAKAVA-NH2)	17.60 (≈ 32 µg/mL)	35.21 (≈ 64 µg/mL)	–	–	–	–	–	–	59	100	not harmful	–	–
CC(C)C[C@H](NC(=O)[C@H](CCCNC(=N)N)NC(=O)[C@H](CCCCN)NC(=O)[C@H](Cc1ccccc1)NC(=O)[C@H](CC(C)C)NC(=O)[C@H](CCCCN)NC(=O)CNC(=O)[C@H](Cc1ccccc1)NC(=O)CN)C(=O)N[C@@H](C)C(=O)N[C@@H](CCCCN)C(=O)N[C@@H](C)C(=O)N[C@H](C(=O)N[C@@H](C)C(=O)N[C@@H](CCCCN)C(=O)N[C@@H](C)C(=O)N[C@H](C(=O)N[C@@H](C)C(N)=O)C(C)C)C(C)C [Peptide R10b] (H-GFGKLFKRLAKAVAKAVA-NH2)	17.07 (≈ 32 µg/mL)	34.15 (≈ 64 µg/mL)	–	high toxicity	–	–	–	–	–	–	not harmful	more than 50%	100
